Source: patent US7402602B2 (priority 2001, dated 2008)

| melting point | SMILES |
| --- | --- |
| 165 to 166 °C | CC(c1ccccc1)c1nc(-c2ccc(-c3ccccc3)cc2)c[nH]1 (stereo not drawn) [Example 15, 4-(1,1′-biphenyl-4-yl)-2-(1-phenylethyl)-1H-imidazole] |
| 104 to 105 °C | c1ccc(-c2ccc(-c3c[nH]c(CC4CCCCC4)n3)cc2)cc1 [Example 17, 4-(1,1′-biphenyl-4-yl)-2-(cyclohexylmethyl)-1H-imidazole] |
| 116 °C | CC(C)Cc1ccc(C(C)c2nc(-c3ccc(F)cc3)c[nH]2)cc1 (stereo not drawn) [Example 14, 4-(4-fluorophenyl)-2-[1-(4-isobutylphenyl)ethyl]-1H-imidazole] |
| 172.7 °C | CC(C)Cc1ccc(C(C)c2nc(-c3ccc(-c4ccccc4)cc3)c[nH]2)cc1 (stereo not drawn) [Example 13, 4-(1,1′-biphenyl-4-yl)-2-[1-(4-isobutylphenyl)ethyl]-1H-imidazole] |
| 118 to 119 °C | c1ccc(-c2ccc(-c3c[nH]c(CCCC4CCCCC4)n3)cc2)cc1 [Example 18, 4-(1,1′-biphenyl-4-yl)-2-(3-cyclohexylpropyl)-1H-imidazole] |
| 197 to 198 °C | CCCC(CCC)c1nc(-c2ccc(-c3ccccc3)cc2)c[nH]1 [Example 16, 4-(1,1′-biphenyl-4-yl)-2-(1-propylbutyl)-1H-imidazole] |

Second part, the compound before the results:

| SMILES | melting point |
| --- | --- |
| CCCCCC(CCCCC)c1nc(-c2ccccc2)c[nH]1 [Example 4, 2-(1-pentylhexyl)-4-phenyl-1H-imidazole] | 111.2 °C |
| c1ccc(-c2ccc(-c3c[nH]c(CCC4CCCCC4)n3)cc2)cc1 [Example 11, 4-(1,1′-biphenyl-4-yl)-2-(2-cyclohexylethyl)-1H-imidazole] | 104.9 °C |
| CC(C)Cc1ccc(Cc2nc(-c3ccc(-c4ccccc4)cc3)c[nH]2)cc1 [Example 1, 4-(1,1′-biphenyl-4-yl)-2-(4-isobutylbenzyl)-1H-imidazole] | 160 to 161 °C |
| CCCC(CCC)c1nc(-c2ccc(-c3ccc(Br)cc3)cc2)c[nH]1 [Example 10, 4-(4′-bromo-1,1′-biphenyl-4-yl)-2-(1-propylbutyl)-1H-imidazole] | 182.8 °C |
| CCCCCCc1nc(-c2ccc(CC(C)C)cc2)c[nH]1 [Example 2, 2-hexyl-4-(4-isobutylphenyl)-1H-imidazole] | 89 to 90 °C |
| Fc1ccc(-c2c[nH]c(CC3CCCCC3)n2)cc1 [Example 6, 2-(cyclohexylmethyl)-4-(4-fluorophenyl)1H-imidazole] | 68 to 70 °C |
| CCCCCC(CCCCC)c1nc(-c2ccc(-c3ccccc3)cc2)c[nH]1 [Example 7, 4-(1,1′-biphenyl-4-yl)-2-(1-pentylhexyl)-1H-imidazole] | 173.6 °C |
| CCCCCCc1nc(-c2ccc(-c3ccccc3)cc2)c[nH]1 [Example 12, 4-(1,1′-biphenyl-4-yl)-2-hexyl-1H-imidazole] | 104.8 °C |
| CCCC(CCC)c1nc(-c2ccc(C(C)(C)C)cc2)c[nH]1 [Example 8, 4-(4-tert-butylphenyl)-2-(1-propylbutyl)-1H-imidazole] | 200 to 202 °C |
| CCCCCC(CCCCC)c1nc(-c2ccc(F)cc2)c[nH]1 [Example 5, 4-(4-fluorophenyl)-2-(1-pentylhexyl)-1H-imidazole] | 134.6 °C |
| CCCC(CCC)c1nc(-c2ccc(F)cc2)c[nH]1 | 217.5 °C |
| c1ccc(CCCc2nc(-c3ccccc3)c[nH]2)cc1 [Example 3, 4-phenyl-2-(3-phenylpropyl)-1H-imidazole] | 106 to 108 °C |
